# Test results published in patent publication US7824847B2, “Tissue preservation method with polyoxyethylene/polyoxypropylene copolymer” (Regents of the University of California, priority 2003, dated 2010).
# System: bovine corneal endothelial cells
# Experiment: Evaluation of the endothelial cell layer in bovine corneas stored in preservation media at 4° C. (Calcein AM viability staining)
# Assay type: cell-based
# Conditions: DMSO at 0.5%
# Protocol: Evaluations of the endothelial cell layer in bovine corneas in different media. post-incubation survival utility or usefulness for transplantation is defined as less than 3% dying and less than 1.5% missing. Missing cells leave a gap in the layer; calcein-AM staining for esterase activity is used to determine cell health. Transplant surgeons typically use missing cell counts and morphology alone as the index of health and post-incubation survival utility.
# Bovine eyes were obtained from Rancho Veal, Petaluma, Calif. Two to 3 hours elapsed between death of the cattle and excision of the cornea with a 1 to 2 millimeter (mm) scleral rim from the enucleated eyes. […]
# The viability of the corneal endothelium was quantified with the vital stain Calcein AM (Molecular Probes, Eugene, Oreg.). The hydrophobic and non-fluorescent Calcein AM readily diffuses across the plasma membrane and into the cytoplasm. […] The bright nuclei are easily counted. […] A Zeiss IM-35 inverted fluorescence microscope (Thornwood, N.Y.) equipped with excitation and emission filters for Green Fluorescent Protein (filter set XF100-2 from Omega Optical, Brattleboro, Vt.) was used to illuminate the half cornea. […]
# For analysis, each photograph was overlaid with a sheet of transparency film. A felt-tip lab pen was used to mark cells as they were counted and scored as bright (live), dim (dying), or dark (dead or missing). […]
compound,measurement,value
"C[S+](C)[O-] [DMSO, dimethylsulfoxide]",effect on corneal endothelial cell survival,no effect
